ChEMBL document CHEMBL5465560, “Selectivity Literature for EUbOPEN Chemogenomic Library” (2024)

Experiments:
[1] = molecular target: Receptor-interacting serine/threonine-protein kinase 2 (Homo sapiens, UniProt O43353); details: at 10 µM
[2] = molecular target: T1, Calcium/calmodulin-dependent protein kinase type IV (Homo sapiens) (UniProt Q16566); assay: Selectivity interaction (Kinase screening (Upstate/Millipore)) EUB0000604a CAMK4
T1 sequence (whole entry): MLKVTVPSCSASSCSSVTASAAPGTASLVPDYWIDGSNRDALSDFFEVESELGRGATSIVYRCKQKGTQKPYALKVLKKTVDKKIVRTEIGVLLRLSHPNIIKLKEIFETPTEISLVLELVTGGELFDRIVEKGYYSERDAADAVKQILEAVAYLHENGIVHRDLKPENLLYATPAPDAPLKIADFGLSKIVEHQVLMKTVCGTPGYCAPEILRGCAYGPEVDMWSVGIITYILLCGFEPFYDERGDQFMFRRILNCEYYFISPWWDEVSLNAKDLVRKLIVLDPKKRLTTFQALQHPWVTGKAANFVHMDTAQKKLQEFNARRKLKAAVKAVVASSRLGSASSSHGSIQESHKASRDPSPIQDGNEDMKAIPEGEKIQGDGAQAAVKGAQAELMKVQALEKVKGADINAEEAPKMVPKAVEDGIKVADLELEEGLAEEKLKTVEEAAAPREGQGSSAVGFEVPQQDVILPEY

[3] = molecular target: Serine/threonine-protein kinase 26 (Homo sapiens, UniProt Q9P289); assay: Selectivity interaction (KinomeScan (DiscoverX)) EUB0001049a STK26; details: at 1 µM
[4] = molecular target: Mitogen-activated protein kinase 9 (Homo sapiens, UniProt P45984); assay: Selectivity interaction (ActivX KiNativ screen (kinase selectivity in THP-1 cell lysates)) EUB0000639a MAPK9; type: subcellular; details: lysate, at 0.04 µM
[5] = molecular target: T2, Myosin light chain kinase family member 4 (Homo sapiens) (UniProt Q86YV6); assay: Selectivity interaction (KinomeScan (DiscoverX)) EUB0000695a MYLK4; details: at 100 nM
T2 sequence (whole entry): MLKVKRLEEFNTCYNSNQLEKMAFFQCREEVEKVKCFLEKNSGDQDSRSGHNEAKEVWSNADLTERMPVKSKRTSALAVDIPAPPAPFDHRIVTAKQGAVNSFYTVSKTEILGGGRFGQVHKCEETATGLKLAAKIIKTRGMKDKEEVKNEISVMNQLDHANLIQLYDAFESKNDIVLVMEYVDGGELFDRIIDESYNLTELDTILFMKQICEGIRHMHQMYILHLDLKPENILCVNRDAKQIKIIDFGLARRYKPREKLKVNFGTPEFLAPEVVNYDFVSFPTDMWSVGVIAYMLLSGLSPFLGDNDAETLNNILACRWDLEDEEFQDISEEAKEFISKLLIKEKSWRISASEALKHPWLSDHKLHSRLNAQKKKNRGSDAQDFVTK

[6] = molecular target: Cyclin-dependent kinase 4/cyclin D1 (Homo sapiens) (UniProt P11802+P24385); assay: (§1) Selectivity interaction (KinomeScan (DiscoverX)) EUB0000595a CDK4; type: protein-complex assay; details: at 10 µM
[7] = molecular target: CDK4/Cyclin D3 (Homo sapiens) (UniProt P11802+P30281); assay: as §1; type: protein-complex assay; details: at 10 µM
[8] = molecular target: AP2-associated protein kinase 1 (Homo sapiens, UniProt Q2M2I8); assay: Selectivity interaction (KinomeScan (DiscoverX)) EUB0000595a AAK1; details: at 10 µM
[9] = molecular target: cAMP-dependent protein kinase catalytic subunit beta (Homo sapiens) (UniProt P22694); assay: Selectivity interaction (KinomeScan (DiscoverX)) EUB0000229b PRKACB; details: at 10 µM
[10] = molecular target: Phosphatidylinositol 4-kinase beta (Homo sapiens, UniProt Q9UBF8); assay: Selectivity interaction (ProQinase) EUB0000171b PI4KB
[11] = molecular target: Cyclin-dependent kinase 15 (Homo sapiens) (UniProt Q96Q40); assay: Selectivity interaction (KinomeScan (DiscoverX)) EUB0000092b CDK15; details: at 10 µM
[12] = molecular target: Rho-associated protein kinase 2 (Homo sapiens, UniProt O75116); assay: Selectivity interaction (KinomeScan (DiscoverX)) EUB0000045b ROCK2
[13] = molecular target: T3, Tyrosine-protein kinase receptor TYRO3 (Homo sapiens) (UniProt Q06418); assay: Selectivity interaction (KinomeScan (DiscoverX)) EUB0001619a TYRO3; details: at 1 µM
T3 sequence (whole entry): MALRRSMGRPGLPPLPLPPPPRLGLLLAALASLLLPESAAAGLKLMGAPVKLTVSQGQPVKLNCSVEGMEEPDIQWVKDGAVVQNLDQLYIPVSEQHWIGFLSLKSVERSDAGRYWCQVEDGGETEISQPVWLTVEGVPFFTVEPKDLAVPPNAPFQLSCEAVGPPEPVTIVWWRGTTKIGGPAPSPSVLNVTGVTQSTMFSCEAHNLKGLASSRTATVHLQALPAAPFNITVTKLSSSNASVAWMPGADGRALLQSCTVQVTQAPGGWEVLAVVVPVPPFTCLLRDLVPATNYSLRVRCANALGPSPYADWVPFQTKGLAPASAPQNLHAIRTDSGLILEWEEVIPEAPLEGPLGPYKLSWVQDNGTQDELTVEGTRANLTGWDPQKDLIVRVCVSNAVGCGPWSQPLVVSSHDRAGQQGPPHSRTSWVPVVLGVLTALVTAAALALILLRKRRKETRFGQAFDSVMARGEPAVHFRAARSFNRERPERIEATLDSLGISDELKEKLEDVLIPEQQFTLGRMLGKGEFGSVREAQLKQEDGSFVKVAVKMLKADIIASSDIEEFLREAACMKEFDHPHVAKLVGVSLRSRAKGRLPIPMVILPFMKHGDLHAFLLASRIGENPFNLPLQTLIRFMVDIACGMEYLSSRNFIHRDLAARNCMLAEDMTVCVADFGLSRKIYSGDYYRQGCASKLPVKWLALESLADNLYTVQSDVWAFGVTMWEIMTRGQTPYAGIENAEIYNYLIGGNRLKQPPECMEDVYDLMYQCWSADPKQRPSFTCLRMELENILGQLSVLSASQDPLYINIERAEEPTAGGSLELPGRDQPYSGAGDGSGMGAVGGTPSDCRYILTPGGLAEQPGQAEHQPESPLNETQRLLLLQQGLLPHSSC

[14] = molecular target: Ribosomal protein S6 kinase alpha-5 (Homo sapiens) (UniProt O75582); assay: Selectivity interaction (Kinase panel (KiNativ target engagement assay in Jurkat cells)) EUB0001635a RPS6KA5; type: cell-based; details: Selectivity number of off-targets 0.0, Selectivity number of targets 233.0, Source Knowledge https://www.sciencedirect.com/science/article/pii/S2451945619300674?via%3Dihub, at 1 µM
[15] = tested on: Epidermal growth factor receptor (Homo sapiens), P00533 [UNDEFINED MUTATION]; assay: Selectivity interaction (KinomeScan (DiscoverX)) EUB0000666a EGFR; details: at 10 µM

Phosphatidylinositol 4-kinase beta, sequence (Q9UBF8 2-816 limits assumed): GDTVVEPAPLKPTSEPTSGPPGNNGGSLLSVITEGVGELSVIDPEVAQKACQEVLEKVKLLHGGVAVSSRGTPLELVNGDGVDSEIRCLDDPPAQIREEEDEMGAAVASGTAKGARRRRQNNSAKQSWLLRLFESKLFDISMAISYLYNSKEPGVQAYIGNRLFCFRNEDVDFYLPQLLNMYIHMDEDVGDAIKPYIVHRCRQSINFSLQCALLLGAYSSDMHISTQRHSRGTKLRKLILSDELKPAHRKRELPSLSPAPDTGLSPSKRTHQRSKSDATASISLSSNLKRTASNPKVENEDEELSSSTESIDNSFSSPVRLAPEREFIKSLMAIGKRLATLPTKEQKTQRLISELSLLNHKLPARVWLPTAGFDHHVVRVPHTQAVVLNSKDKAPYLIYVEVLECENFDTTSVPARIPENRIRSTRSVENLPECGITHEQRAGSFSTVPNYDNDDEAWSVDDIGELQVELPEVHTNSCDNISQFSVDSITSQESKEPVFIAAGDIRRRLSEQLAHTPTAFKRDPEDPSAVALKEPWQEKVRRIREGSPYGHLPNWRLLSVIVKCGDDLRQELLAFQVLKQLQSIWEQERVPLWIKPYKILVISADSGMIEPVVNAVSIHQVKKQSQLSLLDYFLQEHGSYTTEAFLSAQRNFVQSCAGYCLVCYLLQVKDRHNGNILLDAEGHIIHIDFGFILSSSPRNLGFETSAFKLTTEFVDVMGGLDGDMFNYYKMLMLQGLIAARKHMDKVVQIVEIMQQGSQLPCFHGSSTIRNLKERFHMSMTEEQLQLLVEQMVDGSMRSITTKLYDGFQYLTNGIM
Rho-associated protein kinase 2, sequence (O75116 whole entry, looked up): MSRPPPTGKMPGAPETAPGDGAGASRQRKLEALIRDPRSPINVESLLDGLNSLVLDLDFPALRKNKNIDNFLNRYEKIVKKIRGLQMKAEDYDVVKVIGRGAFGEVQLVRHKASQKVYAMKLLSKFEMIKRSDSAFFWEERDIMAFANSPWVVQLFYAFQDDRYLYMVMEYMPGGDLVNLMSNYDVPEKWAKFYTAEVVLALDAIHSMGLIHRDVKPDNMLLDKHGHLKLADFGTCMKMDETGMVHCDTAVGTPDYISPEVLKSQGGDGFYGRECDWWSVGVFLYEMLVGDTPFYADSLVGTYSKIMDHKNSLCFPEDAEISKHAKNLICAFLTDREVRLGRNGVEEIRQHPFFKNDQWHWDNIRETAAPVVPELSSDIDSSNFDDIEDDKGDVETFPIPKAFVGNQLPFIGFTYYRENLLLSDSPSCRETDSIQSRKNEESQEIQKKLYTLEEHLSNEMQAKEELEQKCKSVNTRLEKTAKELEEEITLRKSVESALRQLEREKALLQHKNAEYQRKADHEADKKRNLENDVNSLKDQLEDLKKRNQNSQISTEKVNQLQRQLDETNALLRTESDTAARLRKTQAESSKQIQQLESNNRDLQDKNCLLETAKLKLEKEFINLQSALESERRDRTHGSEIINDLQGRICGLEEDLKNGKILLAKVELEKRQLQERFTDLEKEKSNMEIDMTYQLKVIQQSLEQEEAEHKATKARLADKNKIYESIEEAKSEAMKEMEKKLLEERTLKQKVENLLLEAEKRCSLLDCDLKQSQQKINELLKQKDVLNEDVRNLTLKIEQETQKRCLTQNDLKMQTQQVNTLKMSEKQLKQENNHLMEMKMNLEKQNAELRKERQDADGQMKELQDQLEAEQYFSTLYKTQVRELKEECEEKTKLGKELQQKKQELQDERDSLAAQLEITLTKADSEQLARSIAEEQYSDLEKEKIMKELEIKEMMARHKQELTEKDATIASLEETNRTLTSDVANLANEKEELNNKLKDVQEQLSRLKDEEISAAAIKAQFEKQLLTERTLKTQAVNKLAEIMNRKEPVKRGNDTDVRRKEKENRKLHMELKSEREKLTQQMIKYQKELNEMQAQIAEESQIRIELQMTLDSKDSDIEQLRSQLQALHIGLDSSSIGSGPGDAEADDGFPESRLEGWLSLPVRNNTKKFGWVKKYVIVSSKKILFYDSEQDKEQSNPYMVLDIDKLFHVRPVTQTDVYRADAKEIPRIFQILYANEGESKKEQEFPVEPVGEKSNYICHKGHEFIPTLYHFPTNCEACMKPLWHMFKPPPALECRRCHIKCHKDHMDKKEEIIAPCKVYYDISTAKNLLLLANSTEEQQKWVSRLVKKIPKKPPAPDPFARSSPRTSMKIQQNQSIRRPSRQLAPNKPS
Receptor-interacting serine/threonine-protein kinase 2, sequence (O43353 whole entry): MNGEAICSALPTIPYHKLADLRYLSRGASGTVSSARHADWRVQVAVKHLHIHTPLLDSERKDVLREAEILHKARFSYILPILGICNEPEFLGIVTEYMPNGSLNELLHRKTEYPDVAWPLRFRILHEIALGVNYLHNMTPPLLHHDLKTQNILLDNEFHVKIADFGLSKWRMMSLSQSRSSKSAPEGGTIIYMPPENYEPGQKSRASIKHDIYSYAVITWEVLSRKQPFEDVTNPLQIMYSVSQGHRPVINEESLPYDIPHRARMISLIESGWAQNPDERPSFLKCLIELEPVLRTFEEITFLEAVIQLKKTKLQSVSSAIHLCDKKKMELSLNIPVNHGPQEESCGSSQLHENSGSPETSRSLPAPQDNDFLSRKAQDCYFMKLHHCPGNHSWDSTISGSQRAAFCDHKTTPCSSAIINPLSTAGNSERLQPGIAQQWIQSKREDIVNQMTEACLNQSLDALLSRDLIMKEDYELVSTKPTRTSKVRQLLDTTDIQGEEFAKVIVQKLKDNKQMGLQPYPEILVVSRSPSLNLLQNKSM
Ribosomal protein S6 kinase alpha-5 (Homo sapiens), sequence (O75582 whole entry, looked up): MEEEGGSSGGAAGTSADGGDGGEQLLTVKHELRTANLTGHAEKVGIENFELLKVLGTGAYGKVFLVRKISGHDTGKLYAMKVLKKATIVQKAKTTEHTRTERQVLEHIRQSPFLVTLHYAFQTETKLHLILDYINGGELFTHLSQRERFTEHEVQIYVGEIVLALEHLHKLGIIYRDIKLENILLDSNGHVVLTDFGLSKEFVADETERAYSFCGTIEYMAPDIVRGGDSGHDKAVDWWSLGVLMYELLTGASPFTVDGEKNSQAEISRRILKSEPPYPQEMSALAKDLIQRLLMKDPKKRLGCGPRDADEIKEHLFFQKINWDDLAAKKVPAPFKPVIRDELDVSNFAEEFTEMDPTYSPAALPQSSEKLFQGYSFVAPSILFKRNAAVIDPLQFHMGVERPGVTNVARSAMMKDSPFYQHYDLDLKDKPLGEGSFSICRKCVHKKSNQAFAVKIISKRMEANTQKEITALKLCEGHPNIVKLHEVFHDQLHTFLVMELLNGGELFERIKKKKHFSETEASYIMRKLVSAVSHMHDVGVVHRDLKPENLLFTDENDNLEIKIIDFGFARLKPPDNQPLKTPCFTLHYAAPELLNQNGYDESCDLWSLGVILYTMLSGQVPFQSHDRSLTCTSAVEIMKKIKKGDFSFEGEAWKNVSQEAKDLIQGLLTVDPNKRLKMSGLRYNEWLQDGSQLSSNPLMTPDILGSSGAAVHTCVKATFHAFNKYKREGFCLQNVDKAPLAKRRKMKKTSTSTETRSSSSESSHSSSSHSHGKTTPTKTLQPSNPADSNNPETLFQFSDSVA
Serine/threonine-protein kinase 26, sequence (Q9P289 2-416 limits assumed): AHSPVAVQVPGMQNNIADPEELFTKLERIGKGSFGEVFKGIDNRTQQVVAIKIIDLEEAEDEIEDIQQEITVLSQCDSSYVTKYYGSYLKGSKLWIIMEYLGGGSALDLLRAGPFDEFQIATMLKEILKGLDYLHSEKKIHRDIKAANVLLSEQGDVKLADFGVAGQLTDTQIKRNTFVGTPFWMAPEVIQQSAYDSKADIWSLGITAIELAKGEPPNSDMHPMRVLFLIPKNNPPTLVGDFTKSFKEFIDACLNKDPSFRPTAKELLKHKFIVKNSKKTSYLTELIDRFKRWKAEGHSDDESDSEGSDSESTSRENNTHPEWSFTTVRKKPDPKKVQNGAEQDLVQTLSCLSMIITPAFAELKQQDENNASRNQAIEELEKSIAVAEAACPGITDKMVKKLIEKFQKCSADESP
AP2-associated protein kinase 1, sequence (Q2M2I8 whole entry, looked up): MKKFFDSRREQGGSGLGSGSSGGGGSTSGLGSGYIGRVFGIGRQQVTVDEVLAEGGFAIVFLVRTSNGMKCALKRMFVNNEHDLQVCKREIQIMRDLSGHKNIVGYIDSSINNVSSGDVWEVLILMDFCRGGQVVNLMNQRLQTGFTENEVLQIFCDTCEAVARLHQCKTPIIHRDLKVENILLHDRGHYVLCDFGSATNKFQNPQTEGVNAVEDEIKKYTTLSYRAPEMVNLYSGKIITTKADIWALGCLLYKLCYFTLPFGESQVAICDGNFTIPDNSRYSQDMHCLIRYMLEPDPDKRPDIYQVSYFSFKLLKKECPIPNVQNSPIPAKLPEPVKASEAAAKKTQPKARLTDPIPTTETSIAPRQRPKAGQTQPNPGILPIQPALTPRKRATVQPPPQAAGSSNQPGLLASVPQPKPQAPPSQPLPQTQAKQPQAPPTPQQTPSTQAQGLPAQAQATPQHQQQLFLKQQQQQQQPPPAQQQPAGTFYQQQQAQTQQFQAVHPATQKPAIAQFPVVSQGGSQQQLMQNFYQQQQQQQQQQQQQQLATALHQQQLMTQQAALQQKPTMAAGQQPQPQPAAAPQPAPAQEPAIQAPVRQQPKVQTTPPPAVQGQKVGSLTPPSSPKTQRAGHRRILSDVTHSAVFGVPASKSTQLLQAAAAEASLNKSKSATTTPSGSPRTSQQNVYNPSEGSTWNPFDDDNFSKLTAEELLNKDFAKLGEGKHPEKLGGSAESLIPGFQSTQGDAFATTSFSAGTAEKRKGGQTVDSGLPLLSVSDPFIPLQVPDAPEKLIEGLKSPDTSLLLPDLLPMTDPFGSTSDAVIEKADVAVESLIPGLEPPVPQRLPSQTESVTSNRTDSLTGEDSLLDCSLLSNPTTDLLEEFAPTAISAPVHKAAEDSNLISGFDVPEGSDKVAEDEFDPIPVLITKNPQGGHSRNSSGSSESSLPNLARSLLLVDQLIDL

## Cc1cc([C@@H](C)Nc2ccccc2C(=O)O)c2nc(N3CCOCC3)cc(=O)n2c1 [AZD-6482]
[1]
  % of control: 94%

## Cc1cnc(Nc2ccc(F)cc2Cl)nc1-c1c[nH]c(C(=O)N[C@H](CO)c2cccc(Cl)c2)c1
[2]
  % of inhibition: 0%

## COc1cc(Nc2nc(C)cc(-c3cnn4nc(OC)ccc34)n2)cc(C(F)(F)F)c1
[3]
  % of control: 85%

## CC[C@@H]1[C@H](F)C(=O)N[C@@H]1COc1nccc2cc(C(N)=O)c(OC)cc12 [ZIMLOVISERTIB]
[4]
  % of inhibition: -18.4%

## Cc1cc(F)c(C(=O)Nc2cccc(-c3nncn3C(C)C)n2)cc1-n1cnc(C2CC2)c1
[5]
  % of control: 100%

## COCC(=O)NC/C=C/c1ccc2ncnc(Nc3ccc(Oc4ccc(C)nc4)c(C)c3)c2c1 [CP-724714]
[6]
  % of control: 100%
[7]
  % of control: 100%
[8]
  % of control: 100%

## COc1cc(N(C)c2ccnc3ccc(C(F)(F)F)cc23)cc(OC)c1OC
[9]
  % binding: 75%

## C=CC(=O)Nc1cccc(C(=O)Nc2ccc(Nc3cc(-c4[nH]c(SC)nc4C)ccn3)cc2)c1
[10]; at 1 µM
  % of control: 101%
[10]; at 5 µM
  % of control: 79%

## CCC(=O)N1CCN(c2ccc(-n3c(=O)ccc4cnc5ccc(-c6cnc7ccccc7c6)cc5c43)cc2C(F)(F)F)CC1
[11]
  % of control: 88%

## C=CC(=O)Nc1cc(-n2c(=O)ccc3cnc4ccc(-c5ccc(NS(C)(=O)=O)cc5)cc4c32)ccc1C
[12]; at 1 µM
  % of control: 87%
[12]; at 10 µM
  % of control: 79%

## N#Cc1cccc(-c2c[nH]c3ncnc(N4CCOCC4)c23)c1
[13]
  % of control: 100%

## C=CC(=O)Nc1ccc(C(=O)Nc2[nH]nc3c2CN(C(=O)N[C@H](CN(C)C)c2ccccc2)C3(C)C)cc1
[14]
  % of engagement: 5.7%

## O=C(NOC[C@H](O)CO)c1ccc(F)c(F)c1Nc1ccc(I)cc1F
[15]
  % of control: 59%
